According to patent US20130296370A1, “COMPOSITION COMPRISING A PHOTOACTIVATABLE LARVICIDE” (UNIVERSITA DEGLI STUDI DI PADOVA, priority 2010, published 2013):

Assays:
Type in all cases: in vivo
Aedes aegypti larvae [1] = assay: C14 porphyrin toxicity in the dark; details: for emerged adults (%) / emerged adults (count) / adult % survival after light exposure: 5 μM C14; for emerged adults (%) / emerged adults (count): pooled data; for adult % survival after light exposure: 12 h-long irradiation 1.0-4.0 mW/cm^2
Protocol: (§1) All the experiments were carried out in a climatic chamber at 28±2° C. with a regulated photoperiod of 12 hours. Transparent plastic trays, containing 500 ml C14 solutions or spring water were employed. Typically, 5±1 days old, 3rd-early 4th instar Aedes aegypti larvae were used. All the experiments were replicated three times.
At the end of the incubation period, dead and living larvae were counted in each tray. Larvae were then washed with tap water, and transferred to new trays containing spring water and PFP. Trays were kept in the dark until adults emerged. Adults were counted and exposed to light (intensity 1.0-4.0 mW/cm^2) for 12 hours, and their mortality was evaluated at the end of the irradiation period.

[2] = test system: Aedes aegypti 3rd-4th instar larvae; assay: Efficacy and residual activity of photolarvicidal formulations; details: for % mortality by incubation time: 12 h irradiation
Protocol: To assess the effect of different C14 loading concentrations on the photolarvicidal activity of the C14-PFP complexes, two photolarvicidal formulates were prepared. The formulates, named C14 PF-5 and C14 PF-50, were obtained by incubating overnight at room temperature under gentle shaking 25 mg of PFP in 500 ml of 5 μM and 50 μM aqueous solutions of C14, respectively. The solutions were filtered using Whatman qualitative filter papers (Whatman International Ltd., UK) and the solid residues, consisting in the C14-PFP complexes, were washed with 10 ml distilled water, oven-dried at 37° C. for 4 hours and stored at room temperature until use. To quantify the amount of bound C14, samples of the two C14-PFP formulates were dissolved in 3 ml of 2% SDS for 2 h under gentle magnetic stirring. The extracted porphyrin was then quantified by spectrophotometric analysis as described above.
as §1
Five series of trays were prepared, namely 0.3 μM and 5 μM C14 porphyrin solutions containing 6 mg PFP (wherein PFP means powdered food pellet (PFP) with final particle diameter of 5-500 μm diameter obtained by crushing a standard food pellet for laboratory rodents, namely 4RF18 GLP (Mucedola Srl, Italy) using an electric blender and then sieving at mesh diameter 500 μm); spring water containing 6 mg C14 PF-5 or C14 PF-50 formulate (wherein C14 PF-5 and C14 PF-50, were obtained by incubating overnight at room temperature under gentle shaking 25 mg of PFP in 500 ml of 5 μM and 50 μM aqueous solutions of C14, respectively) and spring water containing 6 mg PFP as a control. Each series was arranged into three groups, which were incubated at a 12 hour photoperiod for 48 hours, one, or two weeks, respectively. At the end of the incubation periods, batches of 100 larvae, having fasted for 24 hours, were introduced into the trays, at 8 pm (beginning of the 12 h-long dark period in the climatic chamber). Larval mortality was evaluated after 12 hours (next day at 8.00 pm) of irradiation.

Aedes aegypti larvae [3] = assay: C14 porphyrin toxicity in the light; details: 5 μM C14
Protocol: […] After the irradiation period, larvae were kept in the dark and larval mortality was monitored for 6 days. Arithmetic means of percentages of dead larvae. Error bars represent standard deviations (n=3 replicates of 50 larvae each).
Irradiation of mosquito larvae were performed by employing full spectrum visible light (400-800 nm) at a fluence rate of 1.0 to 4.0 mW/cm^2 using low-pressure mercury discharge fluorescent tubes TL-D Standard Colours (TL-D 58W/33-640 1SL, PHILIPS, EC). The intensity of the incident radiation was measured by an ILT1400A radiometer/photometer, equipped with a SED623/HNK15 multi-junction thermopile detector (International Light Technologies Inc., MA, USA).
as §1
Fifty larvae were added to groups of trays containing 5 μM porphyrin C14 solution or spring water as a control. Trays were provided with PFP (wherein PFP means powdered food pellet (PFP) with final particle diameter of 5-500 μm diameter obtained by crushing a standard food pellet for laboratory rodents, namely 4RF18 GLP (Mucedola Srl, Italy) using an electric blender and then sieving at mesh diameter 500 μm) and incubated in the dark for 12 hours. […] After irradiation, the trays were returned in the dark, and larval mortality was assessed every 24 hours for the following 6 days. Larvae not moving or not showing a normally vigorous escaping response at probing were defined as dead or dying, respectively, and counted together. Pupae formed during the experiment were transferred to smaller trays containing spring water, within screened cages at normal colony photoperiod conditions, and monitored for mortality and adult emergence.

## CCCCCCCCCCCCCC[n+]1ccc(-c2c3nc(c(-c4cc[n+](C)cc4)c4ccc([nH]4)c(-c4cc[n+](C)cc4)c4nc(c(-c5cc[n+](C)cc5)c5ccc2[nH]5)C=C4)C=C3)cc1.Cc1ccc(S(=O)(=O)[O-])cc1.Cc1ccc(S(=O)(=O)[O-])cc1.Cc1ccc(S(=O)(=O)[O-])cc1.Cc1ccc(S(=O)(=O)[O-])cc1 [C14, meso-tri(N-methyl-pyridyl), mono(N-tetradecyl-pyridyl)porphine]
Aedes aegypti larvae [1]; dark incubation 3 hours
  emerged adults (%): (97.9) %
  emerged adults (count): 138/141
Aedes aegypti larvae [1]; dark incubation 8 hours
  emerged adults (%): (100) %
  emerged adults (count): 128/128
Aedes aegypti larvae [1]; dark incubation 24 hours
  emerged adults (%): (97.9) %
  emerged adults (count): 138/141
Aedes aegypti larvae [1]; larval dark incubation 3 hours
  adult % survival after light exposure: 100%
Aedes aegypti larvae [1]; larval dark incubation 8 hours
  adult % survival after light exposure: 100%
Aedes aegypti larvae [1]; larval dark incubation 24 hours
  adult % survival after light exposure: 100%
Aedes aegypti larvae [1]; 5 μM C14 solution, irrespectively of the duration of incubation
  larval mortality in the dark: No mortality
[2]; 0.3 μM C14 solution with 6 mg untreated larval food, trays incubated 1 week
  % mortality by incubation time: 100%
[2]; 0.3 μM C14 solution with 6 mg untreated larval food, trays incubated 2 weeks
  % mortality by incubation time: 0%
[2]; 0.3 μM C14 solution with 6 mg untreated larval food, trays incubated 48 hours
  % mortality by incubation time: 100%
[2]; 0.3 μM solutions in water containing 6 mg untreated PFP
  residual activity: 1 week
[2]; 5 μM C14 solution with 6 mg untreated larval food, trays incubated 1 week
  % mortality by incubation time: 100%
[2]; 5 μM C14 solution with 6 mg untreated larval food, trays incubated 2 weeks
  % mortality by incubation time: 100%
[2]; 5 μM C14 solution with 6 mg untreated larval food, trays incubated 48 hours
  % mortality by incubation time: 100%
[2]; 5 μM solutions in water containing 6 mg untreated PFP
  residual activity: two weeks
Aedes aegypti larvae [3]; 6 hour-long light, count 24 hours later
  larval mortality: 100%
Aedes aegypti larvae [3]; dark-incubated 8 hours, 6 hour-long light 1.0-4.0 mW/cm^2, within irradiation period
  larval mortality: 97.99%±0.05%
Aedes aegypti larvae [3]; irradiated one hour, thereafter kept in the dark, day 6
  larval mortality: 92.1%±7.9%
